Source: ChEMBL document CHEMBL5614437, “Antibacterial and Anti-Inflammatory Activity of Branched Peptides Derived from Natural Host Defense Sequences” (J Med Chem, 2024)
Active and inactive are the calls of the source. No cut-off for these calls is given here. Bridges are numbered along the chain shown (N, C = ends). Roman numbers before positions name the chains, in order.

What was measured:
Escherichia coli [1] = assay: Antibacterial activity against Escherichia coli TG1 incubated for 12 hrs by microdilution method; type: functional
Escherichia coli [2] = assay: Antibacterial activity against Escherichia coli clinical isolate LC711/14 incubated for 12 hrs by microdilution method; type: functional
Pseudomonas aeruginosa [3] = assay: Antibacterial activity against Pseudomonas aeruginosa ATCC 27853 incubated for 12 hrs by microdilution method; type: functional
Klebsiella pneumoniae [4] = assay: Antibacterial activity against Klebsiella pneumoniae ATCC43816 incubated for 12 hrs by microdilution method; type: functional
Klebsiella pneumoniae [5] = assay: Antibacterial activity against colistin-resistant Klebsiella pneumoniae incubated for 12 hrs by microdilution method; type: functional
Enterococcus faecalis = assay: Antibacterial activity against Enterococcus faecalis 51299 incubated for 12 hrs by microdilution method; type: functional
Staphylococcus aureus = assay: Antibacterial activity against Staphylococcus aureus USA300 incubated for 12 hrs by microdilution method; type: functional
Erythrocyte [6] = assay: Hemolytic activity in human RBC assessed as hemolysis at ~15 uM incubated for 2 hrs by absorbance based plate reader analysis; type: toxicity, cell-based
RAW264.7 [7] = assay: Cytotoxicity against mouse RAW264.7 cells assessed as cell killing incubated for 4 to 24 hrs by crystal violet staining based analysis; type: toxicity; conditions: time 4-24 hrs
RAW264.7 [8] = assay: Cytotoxicity against mouse RAW264.7 cells assessed as cell death at 1 log concentration incubated for 4 to 24 hrs by crystal violet staining based analysis relative to control; type: toxicity; conditions: time 4-24 hrs
Lipopolysaccharide (LPS) = assay: Binding affinity to biotin-tagged LPS (unknown origin) preincubated for 30 mins followed by compound addition and 30 mins of incubation with streptavidin-POD by ELISA based microplate spectrophotometer; type: subcellular; conditions: dose 1-10 µg/ml
Cell membrane [9] = assay: Induction of cytoplasmic membrane permeabilization in Escherichia coli TG1 assessed as increase in fluorescence at 2 times of MIC measured after 10 mins by PI/Sytox green dye based analysis; type: cell membranes
Cell membrane [10] = assay: Induction of cytoplasmic membrane permeabilization in Escherichia coli TG1 assessed as increase in fluorescence incubated for 100 to 120 mins by PI/Sytox green dye based analysis; conditions: dose 1.5-3 µM, time 100-120 min
Cell membrane [11] = assay: Induction of cytoplasmic membrane permeabilization in Escherichia coli TG1 assessed as increase in fluorescence at MIC measured after 40 to 50 mins by PI/Sytox green dye based analysis; conditions: time 40-50 min
Cell membrane [12] = assay: Induction of cytoplasmic membrane permeabilization in Escherichia coli TG1 assessed as wrinkling of membrane surface at 2 times of MIC measured after 30 to 60 mins by SEM analysis; conditions: time 30-60 min
Cell membrane [13] = assay: Induction of cytoplasmic membrane permeabilization in Escherichia coli TG1 assessed as enlargement of bacterial cells at 2 times of MIC measured after 30 to 60 mins by SEM analysis; type: cell membranes; conditions: time 30-60 min
Cell membrane [14] = assay: Induction of cytoplasmic membrane permeabilization in Escherichia coli TG1 assessed as loss of surface smoothness at 2 times of MIC measured after 30 to 60 mins by SEM analysis; conditions: time 30-60 min
[15] = Stability of compound in human serum at 180 uM measured after 4 hrs by HPLC-MS analysis; type: ADME, cell-free
[16] = Stability of compound in human serum at 180 uM measured after 24 hrs by HPLC-MS analysis; type: ADME, cell-free
Escherichia coli [17] = assay: Antibiofilm activity against Escherichia coli TG1 assessed as inhibition of biofilm formation incubated for 24 hrs by absorbance based analysis; type: functional
Klebsiella pneumoniae [18] = assay: Antibiofilm activity against Klebsiella pneumoniae ATCC43816 assessed as inhibition of biofilm formation incubated for 24 hrs by absorbance based analysis; type: functional
Escherichia coli [19] = assay: Antibiofilm activity against 24 hrs preformed biofilm in Escherichia coli TG1 assessed as reduction in preformed biofilm incubated for 14 hrs by absorbance based analysis; type: functional
Klebsiella pneumoniae [20] = assay: Antibiofilm activity against 24 hrs preformed biofilm in Klebsiella pneumoniae ATCC43816 assessed as reduction in preformed biofilm incubated for 14 hrs by absorbance based analysis; type: functional
[21] = Selectivity ratio of biofilm prevention concentration for antibiofilm activity against Escherichia coli TG1 to MIC for antibacterial activity against Escherichia coli TG1; type: functional
Erythrocyte [22] = assay: Hemolytic activity in human RBC assessed as hemolysis at 0.25 to 100 uM incubated for 2 hrs by absorbance based plate reader analysis; type: toxicity, cell-based; conditions: dose 0.25-100 µM
[23] = Selectivity ratio of MBIC80 for antibiofilm activity against preformed biofilm in Escherichia coli TG1 to MIC for antibacterial activity against Escherichia coli TG1; type: functional
Pseudomonas aeruginosa [24] = assay: Antibacterial activity against Pseudomonas aeruginosa clinical isolate FI-25 expressing VIM-1 metallo-beta-lactamase incubated for 12 hrs by microdilution method; type: functional
Pseudomonas aeruginosa [25] = assay: Antibacterial activity against Pseudomonas aeruginosa clinical isolate FI-29 expressing GES-5 beta-lactamase incubated for 12 hrs by microdilution method; type: functional
Enterococcus faecium = assay: Antibacterial activity against vancomycin-resistant Enterococcus faecium clinical isolate FI-48 incubated for 12 hrs by microdilution method; type: functional
Erythrocyte [26] = assay: Hemolytic activity in human RBC assessed as hemolysis at 5 uM incubated for 2 hrs by absorbance based plate reader analysis; type: toxicity, cell-based
Cell membrane [27] = assay: Disruption of outer membrane integrity in Escherichia coli TG1 assessed as loss of double layer integrity measured after 60 mins by TEM analysis
Cell membrane [28] = assay: Disruption of outer membrane integrity in Escherichia coli TG1 assessed as formation of blisters outside the cell measured after 60 mins by TEM analysis; type: cell membranes
Escherichia coli [29] = assay: Antibacterial activity against Escherichia coli TG1 transfected with pGEN-luxCDABE plasmid infected in female BALB/C mouse model of skin infection assessed as reduction in bacterial burden at 16 mg/kg, SC pre-infected with bacteria for 2 hrs followed by compound administration and measured on day 2 by luminescence imaging analysis relative to control; type: functional; parameters: scale not given: the % may be the effect or the level left; conditions: time 2 day
Escherichia coli [30] = assay: Antibacterial activity against Escherichia coli TG1 transfected with pGEN-luxCDABE plasmid infected in female BALB/C mouse model of skin infection assessed as reduction in bacterial burden at 16 mg/kg, SC pre-infected with bacteria for 2 hrs followed by compound administration and measured after 2 to 3 days by luminescence imaging analysis; type: functional, organism-based; conditions: time 2-3 day
Mus musculus = assay: Anti-inflammatory activity in female BALB/C skin infection mouse model infected with Escherichia coli TG1 transfected with pGEN-luxCDABE plasmid assessed as reduction in monocyte number in skin at 16 mg/kg, SC pre-infected with bacteria for 2 hrs followed by compound administration and measured after 3 days by DAPI staining based immunohistochemical analysis; type: functional, organism-based; conditions: time 3.0 day

“I: H-GRFKRFRKKLKK-NH2 / II: H-GRFKRFRKKLK / III: H-GRFKRFRKKL / IV: H-GRFKRFRKKL (amide I:11-IV:C, I:12-II:C, II:11-III:C)” gave an MIC (Escherichia coli [1]) of 6 µM, an MIC (Escherichia coli [2]) of over 25 µM and an MIC (Pseudomonas aeruginosa [3]) of 6 µM. The MIC (Klebsiella pneumoniae [4]) was 25 µM, the MIC (Klebsiella pneumoniae [5]) was over 25 µM and the MIC (Enterococcus faecalis) was over 25 µM. The MIC (Staphylococcus aureus) was over 25 µM, the Activity (Erythrocyte [6]) was “Toxic” and the LC50 (RAW264.7 [7]) was 1.258 10^-5M. For the same substance, the Activity (RAW264.7 [8]) was 100%, the Activity (Lipopolysaccharide (LPS)) was “Dose-Dependent Effect” and the Activity (Cell membrane [9]) was “Active”. The Activity (Cell membrane [10]) was “Dose-Dependent Effect”, the Activity (Cell membrane [11]) was “Active” and the Activity (Cell membrane [12]) was “Active”. The Activity (Cell membrane [13]) was “Active”, the Activity (Cell membrane [14]) was “Active” and the Stability [15] was “Stable”. For the same substance, the Stability [16] was “Unstable”, the IC20 (Escherichia coli [17]) was 25 µM and the IC20 (Klebsiella pneumoniae [18]) was 50 µM. For the same substance, the MBIC80 (Escherichia coli [19]) was 50 µM, the MBIC80 (Klebsiella pneumoniae [20]) was 50 µM and the Selectivity ratio [21] was 4.
In the case of “I: H-KKLLGKNWKLMKK-NH2 / II: H-KKLLGKNWKLMK / III: H-KKLLGKNWKLM / IV: H-KKLLGKNWKLM (amide I:12-IV:C, I:13-II:C, II:12-III:C)”, the MIC (Escherichia coli [1]) is reported as 3 µM, the MIC (Escherichia coli [2]) is reported as over 25 µM and the MIC (Pseudomonas aeruginosa [3]) is reported as 3 µM. It also gave an MIC (Klebsiella pneumoniae [4]) of 25 µM, an MIC (Klebsiella pneumoniae [5]) of over 25 µM and an MIC (Enterococcus faecalis) of over 25 µM. For the same substance, the MIC (Staphylococcus aureus) was over 25 µM, the Activity (Erythrocyte [22]) was “Non-Toxic” and the LC50 (RAW264.7 [7]) was 1 10^-5M. For the same substance, the Activity (RAW264.7 [8]) was 100%, the Activity (Lipopolysaccharide (LPS)) was “Dose-Dependent Effect” and the Activity (Cell membrane [9]) was “Active”. The Activity (Cell membrane [10]) was “Dose-Dependent Effect”, the Activity (Cell membrane [11]) was “Active” and the Activity (Cell membrane [12]) was “Active”. For the same substance, the Activity (Cell membrane [13]) was “Active”, the Activity (Cell membrane [14]) was “Active” and the Stability [15] was “Stable”. The Stability [16] was “Stable”, the MBIC80 (Escherichia coli [19]) was 25 µM and the MBIC80 (Klebsiella pneumoniae [20]) was 50 µM. The Selectivity ratio [23] was 8.
“I: H-TLLKKVLKAAAKKK-NH2 / II: H-TLLKKVLKAAAKK / III: H-TLLKKVLKAAAK / IV: H-TLLKKVLKAAAK (amide I:13-IV:C, I:14-II:C, II:13-III:C)” gave an MIC (Escherichia coli [1]) of 1.5 µM, an MIC (Escherichia coli [2]) of 3 µM and an MIC (Pseudomonas aeruginosa [3]) of 6 µM. For the same substance, the MIC (Pseudomonas aeruginosa [24]) was 12 µM, the MIC (Pseudomonas aeruginosa [25]) was 12 µM and the MIC (Klebsiella pneumoniae [4]) was 6 µM. It also gave an MIC (Klebsiella pneumoniae [5]) of 6 µM, an MIC (Enterococcus faecalis) of 25 µM and an MIC (Enterococcus faecium) of 6 µM. For the same substance, the MIC (Staphylococcus aureus) was over 25 µM, the Activity (Erythrocyte [26]) was “Toxic” and the LC50 (RAW264.7 [7]) was 4.405 10^-7M. For the same substance, the Activity (RAW264.7 [8]) was 100%, the Activity (Lipopolysaccharide (LPS)) was “Dose-Dependent Effect” and the Activity (Cell membrane [9]) was “Active”. The Activity (Cell membrane [10]) was “Dose-Dependent Effect”, the Activity (Cell membrane [11]) was “Active” and the Activity (Cell membrane [12]) was “Active”. For the same substance, the Activity (Cell membrane [13]) was “Active”, the Activity (Cell membrane [14]) was “Active” and the Activity (Cell membrane [27]) was “Active”. The Activity (Cell membrane [28]) was “Active”, the Stability [15] was “Stable” and the Stability [16] was “Stable”. The IC20 (Escherichia coli [17]) was 1.5 µM, the IC20 (Klebsiella pneumoniae [18]) was 50 µM and the MBIC80 (Escherichia coli [19]) was 3 µM. The MBIC80 (Klebsiella pneumoniae [20]) was 50 µM, the Activity (Escherichia coli [29]) was 75% and the Activity (Escherichia coli [30]) was “Active”. For the same substance, the Activity (Mus musculus) was “Active”.
